# Measured values from US5077405A, “3-(1-Substituted-4-piperazinyl)-1H-indazoles” (Hoechst-Roussel Pharmaceuticals Incorporated, priority 1990, dated 1991).
# Counter-ions that a name gives are not always drawn.
# Assays:
# mice [1] = test: 2-phenyl-1,4-benzoquinone-induced writhing test in mice (analgesia); type: in vivo; details: Mus musculus, sc, read-out: Dose (subcutaneous) [ED50], inhibition of writhing
# mice [2] = test: climbing mice assay (apomorphine-induced climbing; antipsychotic activity); type: in vivo, CK-1 male mice; details: Mus musculus, read-out: Antipsychotic Activity (Climbing Mice Assay) ED50
# Protocol: Antipsychotic activity is determined in the climbing mice assay by methods similar to those described by P. Protais, et al., Psychopharmacol, 50, 1 (1976) and B. Costall, Eur. J. Pharmacol., 50, 39 (1978).
# The subject CK-1 male mice (23-27 grams) are group-housed under standard laboratory conditions. The mice are individually placed in wire mesh stick cages (4"×4"×10") and are allowed one hour for adaptation and exploration of the new environment. Then apomorphine is injected subcutaneously at 1.5 mg/kg, a dose causing climbing in all subjects for 30 minutes. Compounds to be tested for antipsychotic activity are injected intraperitoneally 30 minutes prior to the apomorphine challenge at a screening dose of 10 mg/kg.
# For evaluation of climbing, 3 readings are taken at 10, 20 and 30 minutes after apomorphine administration according to the following scale:
# 4 paws on bottom (no climbing)
# 2 paws on the wall (rearing)
# 4 paws on the wall (full climb)
# Mice consistently climbing before the injection of apomorphine are discarded.
# With full-developed apomorphine climbing, the animals are hanging onto the cage walls, rather motionless over longer periods of time. By contrast, climbs due to mere motor stimulation usually last only a few seconds.
# The climbing scores are individually totaled (maximum score: 6 per mouse over 3 readings) and the total score of the control group (vehicle intraperitoneally-apomorphine subcutaneously) is set to 100%. ED50 values with 95% confidence limits, calculated by a linear regression analysis of some of the compounds of this invention are presented in Table II.
# [3] = male mice, ip 30 min before apomorphine 1.5 mg/kg sc, linear regression
# [4] = mice, subcutaneous, 2-phenyl-1,4-benzoquinone-induced writhing
smiles,measurement,setting,value
"c1ccc2c(N3CCNCC3)n[nH]c2c1 [3-(1-piperazinyl)-1H-indazole, 3-(1-Piperazinyl)-1H-indazole]",ED50,mice [1],0.9 mg/kg
Cc1[nH]c2ccccc2c1CCCN1CCN(c2n[nH]c3ccccc23)CC1 [3-{4-[3-(2-Methylindol-3-yl)propyl]-1-piperazinyl}-1H-indazole hemifumarate],ED50,mice [2]; [3],0.4 mg/kg
"CN1CCN(c2n[nH]c3ccccc23)CC1 [3-(4-methyl-1-piperazinyl)-1H-indazole, 3-(4-Methyl-1-piperazinyl)-1H-indazole]",ED50,mice [1],0.04 mg/kg
Cl.Cl.OCCN1CCN(c2n[nH]c3ccccc23)CC1 [3-[4-(2-Hydroxyethyl)-1-piperazinyl]-1H-indazole dihydrochloride],ED50,mice [1]; [4],2 mg/kg
"Fc1ccc(C(CCCN2CCN(c3n[nH]c4ccccc34)CC2)c2ccc(F)cc2)cc1 [3-[4-[4,4-Bis(4-fluorophenyl)butyl-1-piperazinyl]-1H-indazole hydrochloride]",ED50,mice [1]; [4],3.6 mg/kg
same,ED50,mice [2]; [3],0.87 mg/kg
CN1CCN(c2n[nH]c3ccc(Cl)cc23)CC1 [5-Chloro-3-(4-methyl-1-piperazinyl)-1H-indazole],ED50,mice [1],6.8 mg/kg
"O=C(CCCN1CCC(O)(c2ccc(Cl)cc2)CC1)c1ccc(F)cc1 [haloperidol, reference compound]",ED50,mice [2]; ip,0.11 mg/kg
"Cn1nc(N2CCN(CCCCN3C(=O)CC4(CCCC4)CC3=O)CC2)c2ccccc21 [8-[4-[1-(1-Methyl-1H-indazol-3-yl)-4-piperazinyl]butyl-8-azaspiro[4,5]decane-7,9-dione fumarate]",ED50,mice [2]; [3],7.3 mg/kg
CN1CCN(c2nn(CC3CC3)c3ccccc23)CC1 [1-Cyclopropylmethyl-3-(4-methyl-1-piperazinyl)-1H-indazole],ED50,mice [1]; [4],1.5 mg/kg
Cl.Fc1ccc2c(N3CCNCC3)n[nH]c2c1 [6-Fluoro-3-(1-piperazinyl)-1H-indazole Hydrochloride],ED50,mice [2]; ip,6.4 mg/kg
"O=C1CC2(CCCC2)CC(=O)N1CCCCN1CCN(c2n[nH]c3ccccc23)CC1 [8-[4-[1-(1H-indazol-3-yl)-4-piperazinyl]butyl-8-azaspiro[4.5]decane-7,9-dione hemifumarate]",ED50,mice [1]; [4],0.07 mg/kg
same,ED50,mice [2]; [3],0.6 mg/kg
CCn1nc(N2CCN(C)CC2)c2ccccc21 [1-ethyl-3-(4-methyl-1-piperazinyl)-1H-indazole],ED50,mice [1],0.5 mg/kg
"CCC(=O)O[C@](Cc1ccccc1)(c1ccccc1)[C@H](C)CN(C)C [propoxyphene, reference compound]",ED50,mice [1],3.9 mg/kg
CC(=O)n1nc(N2CCN(C)CC2)c2ccccc21 [1-Acetyl-3-(4-methyl-1-piperazinyl)-1H-indazole],ED50,mice [1],2.1 mg/kg
CN1CCN(c2n[nH]c3cc(F)ccc23)CC1 [6-Fluoro-3-(4-methyl-1-piperazinyl)-1H-indazole],ED50,mice [2]; ip,4.7 mg/kg
"O=c1[nH]c2ccccc2n1CCCN1CCN(c2n[nH]c3cc(F)ccc23)CC1 [6-Fluoro-3-{4-[3-(1,3-dihydro-2-oxo-2H-benzimidazol-1-yl)propyl]-1-piperazinyl}-1H-indazole Hemifumarate]",ED50,mice [2]; [3],0.43 mg/kg
CN1CCN(c2nn(C(=O)c3ccccc3)c3cc(F)ccc23)CC1 [1-Benzoyl-6-fluoro-3-(4-methyl-1-piperazinyl)-1H-indazole],ED50,mice [1]; [4],4.3 mg/kg
